# System: cats diagnosed with hyperthyroidism
# Assay: Six-week feeding/treatment study in hyperthyroid cats (Example 1): thyroid hormone profiles and serum chemistries
# Format: in vivo
# Settings: six weeks
# Method: Food B1 and food B2 were mixed in a 1:1 ratio, thus resulting in food B. A group of five cats diagnosed with hyperthyroidism was fed food B for six weeks. Another live cats diagnosed with hyperthyroidism were given 2.5 mg methimazole orally once a day for six weeks while they were fed food B. Eight eats diagnosed with hyperthyroidism were given 2.5 mg methimazole orally once a day for six weeks while they were fed a commercially available cat food. The thyroid hormone profiles and serum chemistries of all cats were measured at zero, two, four, and six weeks.
# [1] = hyperthyroid cats, methimazole 2.5 mg orally once a day, food B fed
compound,measurement,setting,value
"Cn1cc[nH]c1=S [Methimazole, methimazole]",Change in Serum Creatinine Levels,[1],+0.46 mg/dL
same,Change in Serum Total T4 Levels,[1],-20.3 nmol/L
same,serum creatinine concentration relative to the normal creatinine concentration range,normal range 0.8-1.8 mg/dL,a bit higher than die 0.8-1.8 mg/dL normal creatinine concentration range
same,serum total T4 concentration relative to the normal total T4 concentration range,normal range printed as 10-55 nmol/dL,did not reach the normal total T4 concentration range

# From patent US20090269416A1, “Compositions and Methods For Preventing or Treating Chronic Renal Failure in Felines With Hyperthyroidism” (HILL'S PET NUTRITION , INC., priority 2006, published 2009)
